Results from patent US6610710B2, “Phenylalanine derivatives” (Ajinomoto Co., Inc., priority 1999, dated 2003).

The compounds below were run against T1, integrin α4β7 (RPMI-8866 cells) binding with rat MAdCAM-1/human IgG1 chimera protein (Homo sapiens, UniProt P13612+P26010) (assay: Rat MAdCAM-1 antagonistic activity (rat MAdCAM-1/α4β7 binding assay), RPMI-8866 cell adhesion). Conditions: 4 mM MnCl2, read-out: MadCAM/α 4 β 7 antagonistic activity to integrin (IC50).
T1 construct: lymphoma cell strain RPMI-8866 of human B cells, known to express integrin α4β7; endogenous in cells; host or cells: RPMI-8866 (human B-cell lymphoma line)
T1 sequence (P13612 34-1032): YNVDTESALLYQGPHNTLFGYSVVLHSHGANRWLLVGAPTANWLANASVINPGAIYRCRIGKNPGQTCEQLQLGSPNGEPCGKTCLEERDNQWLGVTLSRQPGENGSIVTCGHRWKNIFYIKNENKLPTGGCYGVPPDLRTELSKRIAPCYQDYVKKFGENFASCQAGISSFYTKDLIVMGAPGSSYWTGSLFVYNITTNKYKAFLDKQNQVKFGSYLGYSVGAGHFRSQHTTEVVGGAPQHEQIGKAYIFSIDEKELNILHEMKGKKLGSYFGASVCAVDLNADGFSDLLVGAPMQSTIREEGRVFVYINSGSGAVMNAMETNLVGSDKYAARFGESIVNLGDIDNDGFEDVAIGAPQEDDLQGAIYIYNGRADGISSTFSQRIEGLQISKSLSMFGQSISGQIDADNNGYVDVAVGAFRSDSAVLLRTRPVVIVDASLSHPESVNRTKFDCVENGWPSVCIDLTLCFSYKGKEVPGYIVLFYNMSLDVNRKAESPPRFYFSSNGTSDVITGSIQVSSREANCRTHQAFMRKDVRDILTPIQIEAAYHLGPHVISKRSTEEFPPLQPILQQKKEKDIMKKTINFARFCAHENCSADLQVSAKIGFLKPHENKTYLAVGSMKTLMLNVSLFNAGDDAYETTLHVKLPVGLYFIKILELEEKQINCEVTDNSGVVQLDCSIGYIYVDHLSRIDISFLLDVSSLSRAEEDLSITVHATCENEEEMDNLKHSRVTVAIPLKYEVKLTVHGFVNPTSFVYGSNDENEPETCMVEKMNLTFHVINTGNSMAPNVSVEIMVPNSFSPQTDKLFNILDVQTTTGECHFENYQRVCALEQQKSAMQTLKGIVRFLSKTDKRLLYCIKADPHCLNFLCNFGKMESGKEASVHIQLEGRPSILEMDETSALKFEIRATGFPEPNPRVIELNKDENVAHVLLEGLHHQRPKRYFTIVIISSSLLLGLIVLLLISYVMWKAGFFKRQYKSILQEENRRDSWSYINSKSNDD
T1 sequence (P26010 20-798): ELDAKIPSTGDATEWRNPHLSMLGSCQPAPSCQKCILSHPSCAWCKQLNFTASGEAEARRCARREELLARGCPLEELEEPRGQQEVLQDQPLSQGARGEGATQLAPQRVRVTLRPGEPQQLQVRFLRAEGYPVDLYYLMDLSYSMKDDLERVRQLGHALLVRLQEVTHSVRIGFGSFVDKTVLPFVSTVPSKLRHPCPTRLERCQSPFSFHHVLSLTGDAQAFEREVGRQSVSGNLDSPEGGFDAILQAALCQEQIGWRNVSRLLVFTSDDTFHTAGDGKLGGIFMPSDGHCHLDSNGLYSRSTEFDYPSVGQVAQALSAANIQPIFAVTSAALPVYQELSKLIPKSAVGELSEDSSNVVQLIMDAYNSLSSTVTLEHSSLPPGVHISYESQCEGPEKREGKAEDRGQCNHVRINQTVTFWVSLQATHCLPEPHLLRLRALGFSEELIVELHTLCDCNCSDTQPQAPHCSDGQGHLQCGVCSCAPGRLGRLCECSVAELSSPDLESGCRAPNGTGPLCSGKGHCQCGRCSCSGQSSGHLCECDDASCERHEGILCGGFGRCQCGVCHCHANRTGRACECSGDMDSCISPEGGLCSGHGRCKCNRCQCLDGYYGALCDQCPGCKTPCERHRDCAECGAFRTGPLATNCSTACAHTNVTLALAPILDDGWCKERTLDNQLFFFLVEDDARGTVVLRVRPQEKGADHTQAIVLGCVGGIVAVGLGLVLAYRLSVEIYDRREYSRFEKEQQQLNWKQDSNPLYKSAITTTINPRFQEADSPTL
Type: cell-based
Protocol: (Test Example) Rat MAdCAM-1 Antagonistic Activity (rat MAdCAM-1/α4β7 Binding Assay):
The capacity of a test substance antagonistic to the binding of lymphoma cell strain RPMI-8866 of human B cells, known to express integrin α4β7, with rat MAdCAM-1/human IgG1 chimera protein was determined.
100 μl/well of human IgG1 antibody (SIGMA #I-6260) diluted with buffer A to 1/1,000 concentration was added to a micro titer plate having 96 wells. After the incubation at 4° C. overnight, the plate was washed with PBS once. 100 μl/well of rat MAdCAM-1/human IgG1 chimera protein solution diluted with a buffer (buffer C)obtained by diluting Block Ace® (Dainippon Pharmaceutical Co., Ltd.) with PBS to 1/10 concentration was added in an amount of 100 μl/well. After the incubation at 37° C. for 2 hours, unbound MAdCAM-1/IgG was removed by washing once with PBS. After completion of the washing, 150 μl/well of buffer B was added and the incubation was continued at room temperature for 1 hour. Buffer B was removed and then the plate was washed with PBS once.
RPMI-8866 cells were incubated in DMEM containing 10 μg/ml of Calcein-AM at 37° C. for 30 minutes to label them with fluorescence. The cells were again suspended in a binding buffer containing 4 mM of MnCl2.
50 μl of a test substance of various concentrations obtained by the dilution with the binding buffer was added to the plate. Immediately thereafter, 50 μl (final volume: 100 μl/well) of the fluorescent RPMI-8866 cells (4×10^6 cells/ml ) were added thereto, and they were incubated at room temperature for 30 minutes. After the shaking on a plate shaker (IKA MTS-4) at 800 rpm for 30 seconds, the solution was immediately removed to remove the unbound cells. The fluorescence quantity of the bound cells remaining in the wells was determined with a fluorescent plate reader (Wallac 1420 ARVO multi-label counter). The fluorescent strength thus obtained is proportional to the number of RPMI-8866 cells bound to MAdCAM-1 and remaining on the plate. The binding rate of each test material in various concentrations was determined while the fluorescent strength of the test material-free well was determined to be 100%. The concentration IC50 for the 50% binding inhibition was calculated.

SMILES	IC50
O=C(O)[C@H](Cc1ccc(OCc2c(Cl)cccc2Cl)cc1)NC(=O)[C@H]1CC[C@H](C(=O)NNc2ccccc2)CC1 [Example 3, N-(Trans-4-phenylhydrazinocarbonylcyclohexane-1-carbonyl)-O-(2,6-dichlorobenzyl)-L-tyrosine]	0.2 to 1 µM
O=C(O)[C@H](Cc1ccc(OCc2c(Cl)cccc2Cl)cc1)NC(=O)[C@H]1CC[C@H](C(=O)NNc2ccc(Br)cc2)CC1 [Example 4, N-[Trans-4-(4-bromophenylhydrazinocarbonyl)cyclohexane-1-carbonyl]-O-(2,6-dichlorobenzyl)-L-tyrosine]	0.2 to 1 µM
O=C(O)[C@H](Cc1ccc(OCc2c(Cl)cccc2Cl)cc1)NC(=O)[C@H]1CC[C@H](C(=O)NCc2ccccc2)CC1 [Example 6]	1 to 5 µM
COc1cccc(NNC(=O)[C@H]2CC[C@H](C(=O)N[C@@H](Cc3ccc(OCc4c(Cl)cccc4Cl)cc3)C(=O)O)CC2)c1 [Example 44]	0.2 to 1 µM
O=C(Nc1ccc(C[C@H](NC(=O)[C@H]2CC[C@H](C(=O)O)CC2)C(=O)O)cc1)c1snnc1-c1ccccc1 [Example 45, N-(Trans-4-carboxycyclohexane-1-carbonyl)-4-{[(4-phenyl-1,2,3-thiadiazole-5-yl)carbonyl]amino}-L-phenylalanine]	1 to 5 µM
COc1cccc(OC)c1-c1ccc(C[C@H](NC(=O)[C@H]2CC[C@H](C(=O)O)CC2)C(=O)O)cc1 [Example 50, N-(Trans-4-carboxycyclohexane-1-carbonyl)-4-(2,6-dimethoxyphenyl)-L-phenylalanine]	1 to 5 µM
COc1ccc(NNC(=O)[C@H]2CC[C@H](C(=O)N[C@@H](Cc3ccc(-c4c(OC)cccc4OC)cc3)C(=O)O)CC2)cc1 [Example 51, N-[Trans-4-(4-methoxyphenylhydrazinocarbonyl)cyclohexane-1-carbonyl]-4-(2,6-dimethoxyphenyl)-L-phenylalanine]	0.2 to 1 µM
Cc1ccc(NNC(=O)[C@H]2CC[C@H](C(=O)N[C@@H](Cc3ccc(OCc4c(Cl)cccc4Cl)cc3)C(=O)O)CC2)cc1 [Example 34]	0.2 to 1 µM
COc1ccc(NNC(=O)[C@H]2CC[C@H](C(=O)N[C@@H](Cc3ccc(OCc4c(Cl)cccc4Cl)cc3)C(=O)O)CC2)cc1 [Example 14]	0.2 to 1 µM
O=C(O)[C@H](Cc1ccc(OCc2c(Cl)cccc2Cl)cc1)NC(=O)[C@H]1CC[C@H](C(=O)O)CC1 [Example 2, N-(Trans-4-carboxycyclohexane-1-carbonyl)-O-(2,6-dichlorobenzyl)-L-tyrosine]	≤ 0.2 µM
O=C(O)[C@H](Cc1ccc(OCc2c(Cl)cccc2Cl)cc1)NC(=O)[C@H]1CC[C@H](C(=O)NNc2ccc(OC(F)(F)F)cc2)CC1 [Example 35]	1 to 5 µM
COc1ccc(NNC(=O)[C@H]2CC[C@H](C(=O)N[C@@H](Cc3ccc(NC(=O)c4snnc4-c4ccccc4)cc3)C(=O)O)CC2)cc1 [Example 46, N-[Trans-4-(4-methoxyphenylhydrazinocarbonyl)cyclohexane-1-carbonyl]-4-{[(4-phenyl-1,2,3-thiadiazole-5-yl)carbonyl]amino}-L-phenyl-alanine]	1 to 5 µM
